From patent publication US5405864A, “Chemotherapeutic maleimides” (Syntex (U.S.A.) Inc., priority 1993, dated 1995)

Legend:
β1 isozyme of PKC = target: T1, β1 isozyme of PKC (Rattus norvegicus, UniProt P68403); test: Protein kinase C inhibition assay (32P incorporation from γ-32P ATP into synthetic peptide substrate); assay type: biochemical; settings: β1 isozyme of PKC from rat brain; 50 μM ATP; five minutes at room temperature
T1 construct: β1 isozyme of PKC from rat brain; from tissue; host or cells: rat brain
T1 sequence (P68403 whole entry): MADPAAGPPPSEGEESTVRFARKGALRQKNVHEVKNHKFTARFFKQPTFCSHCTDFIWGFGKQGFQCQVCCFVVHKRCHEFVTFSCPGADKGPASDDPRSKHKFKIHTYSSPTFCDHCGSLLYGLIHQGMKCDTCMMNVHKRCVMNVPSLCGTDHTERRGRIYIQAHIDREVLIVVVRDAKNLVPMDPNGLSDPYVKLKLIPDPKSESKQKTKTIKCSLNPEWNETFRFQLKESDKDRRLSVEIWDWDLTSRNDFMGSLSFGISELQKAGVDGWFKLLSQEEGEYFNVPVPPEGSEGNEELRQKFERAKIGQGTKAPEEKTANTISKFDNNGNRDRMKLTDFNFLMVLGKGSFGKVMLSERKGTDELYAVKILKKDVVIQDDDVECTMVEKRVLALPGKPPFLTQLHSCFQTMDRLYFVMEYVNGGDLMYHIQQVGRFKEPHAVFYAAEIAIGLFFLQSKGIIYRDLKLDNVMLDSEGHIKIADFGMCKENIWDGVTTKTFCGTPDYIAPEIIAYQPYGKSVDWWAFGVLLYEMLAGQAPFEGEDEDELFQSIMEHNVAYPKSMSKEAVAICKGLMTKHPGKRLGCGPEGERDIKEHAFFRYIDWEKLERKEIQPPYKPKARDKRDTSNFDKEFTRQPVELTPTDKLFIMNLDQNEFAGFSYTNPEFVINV
Procedure: In vitro activity for protein kinase C inhibition, is quantitated by measuring incorporation of ^32 P from γ-^32 P ATP into synthetic peptide substrates.
Protein Kinase C (PKC) inhibitory activity is quantitated by measuring incorporation of ^32 P from γ-^32 P ATP into synthetic peptide substrates. The inhibitory potential is measured using the β1 isozyme of PKC from rat brain and the synthetic peptide substrate ala-lys-arg-arg-arg-leu-ser-ser-leu-arg-ala.
A reaction mixture containing 25 mM Tris-HCl, pH 7.5, 2.5 mM Mg(NO3), 1.0 mM EGTA, 20 μM substrate, 1 μg/mL phosphatidylserine (PS), 5×10^-6 M diacylglycerol(di-C8), and 50 μM ATP is spiked with γ-^32 P ATP (>5,000 Ci/mmol) to provide approximately 10^6 CPM per reaction and 0.08 μg/mL PKC in a 50 μl volume per well. The assay is run with or without test compound, added at various concentrations. After five minutes incubation at room temperature, the reaction is stopped by the addition of 0.2V of a 50% TCA solution. A 30 μl sample from each well (control and test compound) is then spotted onto Whatman P-81 ion exchange chromatography paper, and 32-P incorporation is then counted on a Beckman LS 5000 TA liquid scintillation counter. The percent inhibition of PKC activated by […] diC8 and 1 μg/mL phosphatydil serine is determined according to the formula: […]
and the concentration necessary to achieve 50% Inhibition is determined.

[1] = test system: colon carcinoma cell line HT-29; test: tumor cell growth inhibition in culture, colon carcinoma cell line HT-29; assay type: cell-based; settings: Homo sapiens, read-out: GI50 (concentration to inhibit tumor cell growth in culture by 50%)
From the text: (§1) The compounds of the present invention are protein kinase C inhibitors useful as chemotherapeutic agents for treating mammals, particularly humans, having a variety of malignant disease states including: small cell lung carcinoma, colon carcinoma, breast tumors corresonding to MCF7, MDA-MB-435 and MDA-N cell lines, and PKC overexpressing tumors, such as those corresponding to CHO/PKC-ε. […] For example, 3-[1-(3-isothioureidopropyl)-2-(thianaphthen-2-yl)indol-3-yl]-1H-pyrrole-2,5-dione has a GI50 (concentration to inhibit tumor cell growth in culture by 50%) of […] against breast cell line MDA-N versus 1 μM against colon carcinoma cell line HT-29.

breast cell line MDA-N = test: tumor cell growth inhibition in culture, breast cell line MDA-N; assay type: cell-based; settings: Homo sapiens, read-out: GI50 (concentration to inhibit tumor cell growth in culture by 50%)
From the text: as §1

[2] = test system: H82 small cell lung carcinoma (SCLC) cells; test: Small Cell Lung Carcinoma Xenograft Assay; assay type: in vivo, Female athymic nude mice
Procedure: (§2) In vivo activity for chemotherapeutic agents, particularly for treating malignant diseases, is determined by tumor inhibition assays, for example as described by Maneckjee, et al., in Proc. Natl. Acad. Sci. USA, Vol 89, 1169-1173 (February 1992). Variations of the assay can be performed, e.g., using HT-29 colon carcinoma cells, SCLC H82 cells, CHO/PKC-β and CHO/PKC-ε cells.
This procedure is a modification of a procedure described by Maneckjee, et al., in Proc. Natl. Acad. Sci. USA, Vol 89, 1169-1173 (February 1992).
(§3) H82 small cell lung carcinoma (SCLC) cells are thawed from frozen stock and grown in RPMI. Prior to injection, the cells are trypsinized, counted, and resuspended in PBS:solubilized basement membrane preparation (Matrigel®) (1:2) to concentrations of 5×10^5 or 1.5×10^6 […]. Female athymic nude mice, 4-5 weeks old (Harlan Sprague Dawley) receive 200R/mouse irradiation one day prior to challenge, and are given 0.2 ml SCLC/mouse by subcutaneous injection in the flank (concentrations of 1×10^5 or 3×10^5 SCLC cells/mouse). Groups of 30 mice are treated intraperitoneally, once a day, with test compound at 10 mg/kg (solubilized in DMSO and diluted to final vehicle concentration of 20% DMSO in PBS). Treatments are started 2 hours post-challenge and continue for 45 days. Vehicle treated and untreated mice are used as controls.
(§4) Statistical Analysis: A Fisher Exact test [Kendall M., Stuart A., The Advanced Theory of Statistics, Vol., 2 (MacMillan Pub. Co. N.Y., 1979)] is used to compare tumor occurrence rates between groups. The Mann Whitney U test [Hollander N., Wolfe D. A., Non-parametric Statistical Methods (John Wiley and Sons, Inc., N.Y., 1973)] is used to compare differences in survival time and a log rank test (Kalbfleisch J. D., Prentice R. L., The Statistical Analysis of Failure Time Data (John Wiley and Sons, Inc., N.Y. 1980)] is used to compare the time for each tumor to reach 2000 mm^3.

[3] = toxicity in mice of the Small Cell Lung Carcinoma Xenograft Assay; assay type: in vivo, Female athymic nude mice
Procedure: as §3

HT-29 colon cancer cells = test: Colon Carcinoma Xenograft Assay; assay type: in vivo, Female athymic nude mice
Procedure: as §2, §3, §4
By following the procedure of Example 18 and substituting H82 small cell lung carcinoma cells with HT-29 colon cancer cells, grown to a concentration of 5×10^6 cells/ml and administered at a concentration of 1×10^6 cells/mouse, activity against colon carcinoma is determined.

SMILES | IC50 (β1 isozyme of PKC) [µM] | GI50 [1] [µM] | GI50 (breast cell line MDA-N) [µM] | prevention of SCLC tumor formation (in words) ([2]; 10 mg/kg intraperitoneally once a day, 45 days) | inhibition of tumor growth (in words) ([2]; SCLC H82 xenograft, 10 mg/kg intraperitoneally once a day, 45 days) | tumor size, fold smaller than vehicle-treated or untreated control groups ([2]; challenge of 1×10^5 SCLC cells/mouse, 10 mg/kg i.p. once a day) [fold] | median time for the tumor volume to reach 2000 mm^3 ([2]; challenge of 1×10^5 SCLC cells/mouse, 10 mg/kg i.p. once a day, vehicle-treated control Day 35 (p<0.001)) [days] | extension of median time for the tumor volume to reach 2000 mm^3 ([2]; challenge of 1×10^5 SCLC cells/mouse, 10 mg/kg i.p. once a day, vs vehicle-treated control Day 35 (p<0.001)) [days] | tumor size, fold smaller than vehicle-treated or untreated control groups ([2]; challenge of 3×10^5 SCLC cells/mouse, 10 mg/kg i.p. once a day) | median time for the tumor volume to reach 2000 mm^3 ([2]; challenge of 3×10^5 SCLC cells/mouse, 10 mg/kg i.p. once a day, vehicle-treated control Day 31 (p<0.001)) [days] | extension of median time for the tumor volume to reach 2000 mm^3 ([2]; challenge of 3×10^5 SCLC cells/mouse, 10 mg/kg i.p. once a day, vs vehicle-treated control Day 31 (p<0.001)) [days] | number of mice having tumors ≥2000 mm^3 at Day 42 of treatment (in words) ([2]; either challenge level (3×10^5 or 1×10^5 SCLC cells/mouse), 10 mg/kg i.p. once a day, p<0.05) | toxicity (in words) ([3]; 10 mg/kg intraperitoneally once a day) | LD50 at 144 h ([3]; mouse, in vivo, ip, after 6 days, read-out: chronic LD50) [mg/kg] | prevention of HT-29 tumor formation (in words) (HT-29 colon cancer cells; 1×10^6 cells/mouse, procedure of Example 18) | number of mice having tumors ≥2000 mm^3 at Day 42 of treatment (in words) (HT-29 colon cancer cells; HT-29, 1×10^6 cells/mouse, p<0.05) | tumor size, fold smaller than vehicle-treated or untreated control groups (HT-29 colon cancer cells; HT-29, 1×10^6 cells/mouse, procedure of Example 18) | median time for the tumor volume to reach 2000 mm^3 (HT-29 colon cancer cells; HT-29, 1×10^6 cells/mouse, vehicle-treated control Day 33 (p<0.01)) [days] | extension of median time for the tumor volume to reach 2000 mm^3 (HT-29 colon cancer cells; HT-29, 1×10^6 cells/mouse, vs vehicle-treated control Day 33 (p<0.01)) [days] | inhibition of tumor growth (in words) (HT-29 colon cancer cells; HT-29 xenograft, 1×10^6 cells/mouse, 10 mg/kg i.p. once a day (procedure of Example 18))
NCCCn1c(-c2cc3ccccc3s2)c(C2=CC(=O)NC2=O)c2ccccc21 [3-[1-(3-aminopropyl)-2-(thianaphthen-2-yl)indol-3-yl]-1H-pyrrole-2,5-dione] | 0.04 |  |  |  |  |  |  |  |  |  |  |  |  |  |  |  |  |  |  | 
N=C(N)SCCCn1c(-c2cc3ccccc3s2)c(C2=CC(=O)NC2=O)c2ccccc21 [3-[1-(3-isothioureidopropyl)-2-(thianaphthen-2-yl)indol-3-yl]-1H-pyrrole-2,5-dione] | 0.003 | 1 | 0.01 | not preventing SCLC tumor formation entirely | did significantly slow tumor growth | ~3 | > 42 | > 7 | approximately 2 fold | 39 | 8 | reduced with either challenge level | exhibitied toxicity at 10 mg/kg | ~20 | not preventing HT-29 tumor formation entirely | reduced | approximately 1.5 fold | 37 | 4 | did significantly slow tumor growth
